Assays:
Caspase-8 = Caspase-8 (Homo sapiens, UniProt Q14790); experiment: in vitro biochemical assay with purified recombinant Caspase-8 and fluorigenic substrate Ac-IETD-AFC; details: purified recombinant Caspase-8, Ac-IETD-AFC, various concentrations of compound
Protocol: The results of a HTS of a yeast-based NALP1 inflammasome assay are shown in FIG. 12 consisting of FIGS. 12A-G (A) NALP1 yeast screen controls. Yeast cells containing ASC/Nalp1ΔLRR/Caspase1 were plated at 1.88×10^5 cells/well in a 384 well plate in media containing 1% galactose/2% raffinose, with (squares) or without (diamonds) 400 μg/ml X-gal substrate. The plates were incubated for 72 hrs at 30° C. and the plates were read at OD620. (B) Yeast Screen of LOPAC compound library plate 4 for NALP1. Yeast cells containing ASC/NALP1/Caspase1 were plated at 1.88×10^5 cells/well in a 384 well plate in media containing 1% galactose, 2% raffinose, with or without 400 μg/ml X-gal. The plates were incubated for 72 hrs at 30° C. and the plates were read at OD620. The compounds were screened at 100 μM and “hits” were defined by >50% reduction (as shown). (C) Validation of HTS assay for Fas-FADD-Caspase-8 system. Yeast cells containing Fas/FADD/Caspase-8 were cultured in 384 well plates as above with (blue squares) or without (purple diamonds) Xgal substrate, the plates were incubated for 72 hrs at 30° C. and analyzed as above. (D) Example of library screening plate for Fas-FADD-Caspase-8. […] Plates were incubated for 48 hrs at 30° C. and OD620 values recorded. […] Data represent relative fluorescence units (RFU) assessed in the absence or presence of various concentrations of compound (CID-2531).

Fas/FADD/Caspase-8 = biological target: T1, Fas/FADD/Caspase-8 (Homo sapiens, UniProt P25445+Q13158+Q14790); experiment: yeast Fas/FADD/Caspase-8 HTS assay with counter-screen strains (lacZ, Asc/Caspase-1, empty vector); format: cell-based; details: 384 well, OD620, 2-4 days at 30° C., versus lacZ, Asc/Caspase-1 and empty vector strains
T1 construct: a small amount of each full-length Caspase construct was expressed with a large amount of adaptor protein FADD; HA (C); expressed in transfected cells; host or cells: Saccharomyces cerevisiae EGY48
Protocol: The results of a HTS of a yeast-based NALP1 inflammasome assay are shown in FIG. 12 consisting of FIGS. 12A-G (A) NALP1 yeast screen controls. Yeast cells containing ASC/Nalp1ΔLRR/Caspase1 were plated at 1.88×10^5 cells/well in a 384 well plate in media containing 1% galactose/2% raffinose, with (squares) or without (diamonds) 400 μg/ml X-gal substrate. The plates were incubated for 72 hrs at 30° C. and the plates were read at OD620. (B) Yeast Screen of LOPAC compound library plate 4 for NALP1. Yeast cells containing ASC/NALP1/Caspase1 were plated at 1.88×10^5 cells/well in a 384 well plate in media containing 1% galactose, 2% raffinose, with or without 400 μg/ml X-gal. The plates were incubated for 72 hrs at 30° C. and the plates were read at OD620. The compounds were screened at 100 μM and “hits” were defined by >50% reduction (as shown). (C) Validation of HTS assay for Fas-FADD-Caspase-8 system. Yeast cells containing Fas/FADD/Caspase-8 were cultured in 384 well plates as above with (blue squares) or without (purple diamonds) Xgal substrate, the plates were incubated for 72 hrs at 30° C. and analyzed as above. (D) Example of library screening plate for Fas-FADD-Caspase-8. […] Plates were incubated for 48 hrs at 30° C. and OD620 values recorded. […] Data represent relative fluorescence units (RFU) assessed in the absence or presence of various concentrations of compound (CID-2531). […]

Caspases = experiment: validation of 384 well yeast-based Caspase-dependent lacZ reporter gene assays with pharmacological inhibitors; format: cell-based, human; details: 384 well yeast-based Caspase-dependent reporter gene assay
Text: When converting the yeast-based protease reporter system to HTS assay, conditions from agar plates to liquid medium in microtiter wells must be revised. This revision comprises, utilizing the measured β-galactosidase produced by yeast carrying the Caspase-cleavable reporter proteins, and assaying the colorimetric product (OD620nm) derived from X-gal substrate in 384 well plates, as a measure of the lacZ reporter gene activity. We compared β-galactosidase activity produced in the presence or absence of the broad-spectrum caspase inhibitory compound, zVAD-fmk ([…]-Valinyl-Alaninyl-Aspartyl-fluoromethylketone). Among the variables that were initially interrogated were initial seeding cell density, time of culture, concentration of X-gal substrate, and supporting carbohydrate (raffinose vs mannose). Note that it was determined that it is not advisible to employ glucose in yeast media because it represses the GAL1 promoter used in some plasmids. An example of data obtained using the plural-component system of Fas/FADD/Caspase-8 is presented. All variables tested altered the signal:noise ratio of the assay. […] For the two-component system of ASC/Caspase-1 and for the plural-component system of NALP1ΔLRR/ASC/Caspase-1, the same conditions were optimal, among those tested (not shown). For the Fas/Fadd/Caspase 8, the caspase and adaptor protein (Fadd) were expressed at relatively small amounts (a weak promoter and low copy number plasmid are used) and the upstream activator (Fas) was expressed in a large amount.
The 384 well assay format was further validated, using zVAD-fmk, a peptidyl inhibitor with broad-spectrum activity against animal Caspases. […]
The validation results of a yeast-based Caspase assay using a pharmacological inhibitor of Caspases are shown in FIG. 11 consisting of FIGS. 11A-C (A) Caspase-1, single-component assay. […] For (A-C), relative absorbance at 620 nm was measured (mean ±std dev; n=3-5 independent experiments). […]
Assays were performed in a total volume of […] in triplicate. […] Absorbance at 620 nm was measured 2-3 days after culture at 30° C.

T1 sequence (Q14790 whole entry): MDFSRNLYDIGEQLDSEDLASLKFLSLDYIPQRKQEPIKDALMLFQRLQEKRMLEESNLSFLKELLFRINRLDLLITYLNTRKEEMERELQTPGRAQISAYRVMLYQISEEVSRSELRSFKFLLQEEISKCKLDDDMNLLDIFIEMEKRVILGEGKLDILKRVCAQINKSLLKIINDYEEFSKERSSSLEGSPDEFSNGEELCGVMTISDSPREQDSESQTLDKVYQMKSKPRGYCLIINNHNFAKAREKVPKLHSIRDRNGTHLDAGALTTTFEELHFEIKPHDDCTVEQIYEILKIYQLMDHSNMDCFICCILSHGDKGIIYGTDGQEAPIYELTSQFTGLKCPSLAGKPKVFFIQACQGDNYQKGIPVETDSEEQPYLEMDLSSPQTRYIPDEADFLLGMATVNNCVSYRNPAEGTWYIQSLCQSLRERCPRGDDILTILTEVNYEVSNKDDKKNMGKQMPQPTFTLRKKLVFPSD
T1 sequence (Q13158 whole entry): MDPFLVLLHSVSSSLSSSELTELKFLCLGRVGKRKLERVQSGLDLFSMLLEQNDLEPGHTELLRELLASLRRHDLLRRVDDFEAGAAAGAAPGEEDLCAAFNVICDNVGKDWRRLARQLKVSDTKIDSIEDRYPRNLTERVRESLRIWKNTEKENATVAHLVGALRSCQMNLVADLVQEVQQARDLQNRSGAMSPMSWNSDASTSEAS
T1 sequence (P25445 26-335): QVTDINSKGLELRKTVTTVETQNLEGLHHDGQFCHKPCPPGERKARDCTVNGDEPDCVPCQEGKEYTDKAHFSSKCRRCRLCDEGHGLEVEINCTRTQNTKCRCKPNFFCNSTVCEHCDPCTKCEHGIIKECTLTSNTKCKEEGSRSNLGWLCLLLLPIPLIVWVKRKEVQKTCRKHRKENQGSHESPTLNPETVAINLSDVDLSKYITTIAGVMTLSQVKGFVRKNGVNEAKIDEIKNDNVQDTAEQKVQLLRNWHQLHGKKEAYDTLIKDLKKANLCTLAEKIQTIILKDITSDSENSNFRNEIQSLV
Sequence of Caspase-8 (Q14790 217-479): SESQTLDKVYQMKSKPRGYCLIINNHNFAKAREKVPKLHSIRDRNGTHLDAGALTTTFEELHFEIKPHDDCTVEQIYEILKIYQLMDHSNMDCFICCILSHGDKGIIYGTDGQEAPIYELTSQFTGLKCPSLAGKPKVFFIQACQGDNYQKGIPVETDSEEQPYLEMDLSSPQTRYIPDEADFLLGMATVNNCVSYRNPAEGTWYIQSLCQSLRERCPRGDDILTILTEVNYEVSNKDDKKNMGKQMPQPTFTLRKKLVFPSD

Row | Compound | selective inhibition of Fas-FADD-Caspase-8 (Fas/FADD/Caspase-8) | further results
1 | Clc1ccc(C(c2ccc(Cl)cc2)n2cc[n+](CC(OCc3ccc(Cl)cc3Cl)c3ccc(Cl)cc3Cl)c2)cc1 (stereo not shown) [CID-2531] | – | inhibition of Caspase-8 (relative fluorescence units) (Caspase-8): evidence of inhibition of Caspase-8
2 | c1ccc2c(c1)[I+]c1ccccc1-2 [CID-3101] | evidence of selective inhibition | –
3 | CCCC[C@@H](C=O)NC(=O)[C@H](CC(C)C)NC(=O)OCc1ccccc1 [Calpain inhibitor, calpeptin] | – | effect on β-galactosidase activity / activation of the lacZ reporter gene (Caspases): did not suppress activation of the lacZ reporter gene
4 | C[n+]1cc2c3c(ccc2c2ccc4cc5c(cc4c21)OCO5)OCO3 [CID-5154] | evidence of selective inhibition | –
